Source: ChEMBL document CHEMBL4507310, “Data for DCP probe A-1211212” (2021)

Tests used:
[1] = target: Serine/threonine-protein kinase 4 (Homo sapiens) (UniProt Q13043); details: Compound concentration 1000.0 nM
[2] = target: 5-hydroxytryptamine receptor 1E (Homo sapiens) (UniProt P28566); details: Compound concentration 10.0 uM
[3] = target: Serine/threonine-protein kinase WNK4 (Homo sapiens) (UniProt Q96J92); details: Compound concentration 1000.0 nM
[4] = target: Casein kinase I isoform delta (Homo sapiens) (UniProt P48730); details: Compound concentration 1000.0 nM
Chain of Casein kinase I isoform delta (Homo sapiens) (P48730 whole entry, looked up, canonical isoform): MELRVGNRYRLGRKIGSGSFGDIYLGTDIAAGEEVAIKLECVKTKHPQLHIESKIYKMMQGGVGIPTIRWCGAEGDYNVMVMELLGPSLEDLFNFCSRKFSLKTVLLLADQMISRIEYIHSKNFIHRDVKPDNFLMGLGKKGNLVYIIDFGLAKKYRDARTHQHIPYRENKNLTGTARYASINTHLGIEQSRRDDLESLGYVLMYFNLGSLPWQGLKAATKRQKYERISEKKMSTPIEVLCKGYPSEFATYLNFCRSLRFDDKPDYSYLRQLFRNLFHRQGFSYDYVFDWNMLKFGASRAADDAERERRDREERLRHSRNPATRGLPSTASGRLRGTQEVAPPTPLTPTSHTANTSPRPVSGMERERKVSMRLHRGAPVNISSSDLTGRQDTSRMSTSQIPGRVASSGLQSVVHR

[5] = target: Androgen receptor (Homo sapiens) (UniProt P10275); test: AR (h) Eurofins-Cerep binding assay; design: ligand concentration 1 nM; details: filed as agonist, Compound concentration 10.0 uM
Chain of Androgen receptor (Homo sapiens) (P10275 whole entry): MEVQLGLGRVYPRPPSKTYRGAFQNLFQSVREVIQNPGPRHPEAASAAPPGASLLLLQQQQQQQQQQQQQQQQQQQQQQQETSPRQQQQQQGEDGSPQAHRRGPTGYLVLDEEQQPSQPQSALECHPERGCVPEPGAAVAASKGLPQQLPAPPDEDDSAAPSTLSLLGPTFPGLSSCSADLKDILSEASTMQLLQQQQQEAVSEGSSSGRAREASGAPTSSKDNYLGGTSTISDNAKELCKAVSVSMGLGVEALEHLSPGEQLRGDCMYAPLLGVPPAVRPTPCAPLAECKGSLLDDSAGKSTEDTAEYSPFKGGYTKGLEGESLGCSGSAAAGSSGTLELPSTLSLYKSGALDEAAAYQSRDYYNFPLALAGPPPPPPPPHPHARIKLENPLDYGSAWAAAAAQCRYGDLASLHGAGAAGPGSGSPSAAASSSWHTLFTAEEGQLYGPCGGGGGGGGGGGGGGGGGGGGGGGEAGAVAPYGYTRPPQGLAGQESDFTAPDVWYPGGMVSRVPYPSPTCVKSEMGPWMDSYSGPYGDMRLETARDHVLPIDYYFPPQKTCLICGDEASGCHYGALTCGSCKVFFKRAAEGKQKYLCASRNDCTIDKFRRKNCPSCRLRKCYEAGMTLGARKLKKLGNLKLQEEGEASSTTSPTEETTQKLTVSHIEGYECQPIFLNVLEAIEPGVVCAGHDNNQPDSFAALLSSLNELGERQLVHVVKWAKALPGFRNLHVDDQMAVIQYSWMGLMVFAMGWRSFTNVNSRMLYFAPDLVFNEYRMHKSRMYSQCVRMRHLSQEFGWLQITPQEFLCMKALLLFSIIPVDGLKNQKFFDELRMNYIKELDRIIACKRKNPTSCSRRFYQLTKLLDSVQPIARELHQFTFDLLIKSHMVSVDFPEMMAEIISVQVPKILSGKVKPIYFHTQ

[6] = target: Mast/stem cell growth factor receptor Kit (Homo sapiens) (UniProt P10721); details: Compound concentration 1000.0 nM
[7] = target: Tyrosine-protein kinase JAK1 (Homo sapiens) (UniProt P23458); details: Compound concentration 1000.0 nM
[8] = target: T1, 5-hydroxytryptamine receptor 3A (Homo sapiens) (UniProt P46098); details: Compound concentration 10.0 uM
T1 sequence (whole entry): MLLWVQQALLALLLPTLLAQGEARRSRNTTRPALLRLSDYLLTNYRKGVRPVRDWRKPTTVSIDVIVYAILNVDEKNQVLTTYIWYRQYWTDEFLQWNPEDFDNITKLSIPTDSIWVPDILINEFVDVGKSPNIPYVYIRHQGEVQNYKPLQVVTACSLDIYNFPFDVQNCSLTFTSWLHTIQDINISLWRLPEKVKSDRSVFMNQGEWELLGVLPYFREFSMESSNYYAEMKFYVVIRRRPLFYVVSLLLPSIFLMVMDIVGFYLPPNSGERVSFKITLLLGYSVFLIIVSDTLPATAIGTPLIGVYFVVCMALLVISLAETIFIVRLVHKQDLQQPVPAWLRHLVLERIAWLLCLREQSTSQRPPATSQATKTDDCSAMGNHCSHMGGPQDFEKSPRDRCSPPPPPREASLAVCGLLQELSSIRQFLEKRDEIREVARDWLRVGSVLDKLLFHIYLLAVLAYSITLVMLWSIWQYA

[9] = target: G protein-coupled receptor kinase 4 (Homo sapiens) (UniProt P32298); details: Compound concentration 1000.0 nM
[10] = target: Serine/threonine-protein kinase TAO3 (Homo sapiens) (UniProt Q9H2K8); details: Compound concentration 1000.0 nM
[11] = test system: Receptor-type tyrosine-protein kinase FLT3 (Homo sapiens), P36888 [UNDEFINED MUTATION]; details: Compound concentration 1000.0 nM
Chain of Receptor-type tyrosine-protein kinase FLT3 (Homo sapiens), P36888 [UNDEFINED MUTATION] (P36888 whole entry, looked up, change not shown): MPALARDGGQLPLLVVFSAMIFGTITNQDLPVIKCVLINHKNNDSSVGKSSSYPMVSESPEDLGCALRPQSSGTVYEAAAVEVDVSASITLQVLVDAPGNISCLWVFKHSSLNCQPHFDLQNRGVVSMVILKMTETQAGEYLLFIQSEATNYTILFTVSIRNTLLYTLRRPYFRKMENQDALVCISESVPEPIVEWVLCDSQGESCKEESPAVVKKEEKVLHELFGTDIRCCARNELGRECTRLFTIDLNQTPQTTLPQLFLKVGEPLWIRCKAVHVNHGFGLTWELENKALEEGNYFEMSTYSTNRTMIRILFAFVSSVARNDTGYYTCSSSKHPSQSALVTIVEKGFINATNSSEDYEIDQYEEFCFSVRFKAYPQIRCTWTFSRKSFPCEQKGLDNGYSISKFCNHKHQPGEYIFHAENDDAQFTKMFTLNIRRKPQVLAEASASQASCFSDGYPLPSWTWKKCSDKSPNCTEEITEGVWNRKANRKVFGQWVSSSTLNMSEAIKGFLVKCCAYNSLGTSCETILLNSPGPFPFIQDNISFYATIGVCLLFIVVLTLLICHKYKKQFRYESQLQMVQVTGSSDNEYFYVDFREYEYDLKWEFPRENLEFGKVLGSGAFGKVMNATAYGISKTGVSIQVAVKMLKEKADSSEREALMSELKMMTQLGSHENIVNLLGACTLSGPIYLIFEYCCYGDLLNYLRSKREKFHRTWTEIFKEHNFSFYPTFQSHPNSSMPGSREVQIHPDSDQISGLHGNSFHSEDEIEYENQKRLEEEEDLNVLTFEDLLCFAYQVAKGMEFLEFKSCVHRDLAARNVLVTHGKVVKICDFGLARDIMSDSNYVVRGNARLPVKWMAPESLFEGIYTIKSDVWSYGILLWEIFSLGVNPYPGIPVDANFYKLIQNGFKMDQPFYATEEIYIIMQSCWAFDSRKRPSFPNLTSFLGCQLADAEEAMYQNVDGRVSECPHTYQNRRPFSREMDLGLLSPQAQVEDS

[12] = target: Serine/threonine-protein kinase Nek11 (Homo sapiens) (UniProt Q8NG66); details: Compound concentration 1000.0 nM
[13] = target: SRSF protein kinase 2 (Homo sapiens) (UniProt P78362); details: Compound concentration 1000.0 nM
[14] = target: Myosin light chain kinase family member 4 (Homo sapiens) (UniProt Q86YV6); details: Compound concentration 1000.0 nM
[15] = target: Tyrosine-protein kinase Yes (Homo sapiens) (UniProt P07947); details: Compound concentration 1000.0 nM
[16] = target: Cyclin-dependent kinase 15 (Homo sapiens) (UniProt Q96Q40); details: Compound concentration 1000.0 nM
[17] = target: Serine/threonine-protein kinase MRCK alpha (Homo sapiens) (UniProt Q5VT25); details: Compound concentration 1000.0 nM
[18] = target: Melatonin receptor type 1B (Homo sapiens) (UniProt P49286); test: MT2 (ML1B) (h) Eurofins-Cerep binding assay; design: ligand concentration 0.05 nM; details: filed as agonist, Compound concentration 10.0 uM
Chain of Melatonin receptor type 1B (Homo sapiens) (P49286 whole entry): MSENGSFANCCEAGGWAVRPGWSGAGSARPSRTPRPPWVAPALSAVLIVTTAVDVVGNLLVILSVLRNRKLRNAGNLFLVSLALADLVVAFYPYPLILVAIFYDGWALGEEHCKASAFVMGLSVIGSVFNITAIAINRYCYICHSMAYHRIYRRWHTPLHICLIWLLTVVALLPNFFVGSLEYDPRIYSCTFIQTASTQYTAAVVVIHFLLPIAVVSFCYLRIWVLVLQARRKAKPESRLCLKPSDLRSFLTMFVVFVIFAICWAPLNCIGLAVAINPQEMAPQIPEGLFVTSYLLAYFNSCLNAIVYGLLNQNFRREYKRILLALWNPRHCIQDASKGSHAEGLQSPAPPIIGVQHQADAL

[19] = target: Serine/threonine-protein kinase MRCK beta (Homo sapiens) (UniProt Q9Y5S2); details: Compound concentration 1000.0 nM
[20] = target: Serine/threonine-protein kinase MARK2 (Homo sapiens) (UniProt Q7KZI7); details: Compound concentration 1000.0 nM
[21] = target: Serine/threonine-protein kinase PAK 2 (Homo sapiens) (UniProt Q13177); details: Compound concentration 1000.0 nM
[22] = target: Testis-specific serine/threonine-protein kinase 3 (Homo sapiens) (UniProt Q96PN8); details: Compound concentration 1000.0 nM
Chain of Testis-specific serine/threonine-protein kinase 3 (Homo sapiens) (Q96PN8 whole entry): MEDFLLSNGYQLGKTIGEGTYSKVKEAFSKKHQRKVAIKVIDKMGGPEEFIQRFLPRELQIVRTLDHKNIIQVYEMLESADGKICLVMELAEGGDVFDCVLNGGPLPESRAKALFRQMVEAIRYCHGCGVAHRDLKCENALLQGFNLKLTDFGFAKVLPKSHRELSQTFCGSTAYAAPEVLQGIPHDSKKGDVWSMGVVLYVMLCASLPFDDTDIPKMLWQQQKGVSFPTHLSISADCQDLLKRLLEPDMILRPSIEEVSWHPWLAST

[23] = target: Mitogen-activated protein kinase 6 (Homo sapiens) (UniProt Q16659); details: Compound concentration 1000.0 nM
Chain of Mitogen-activated protein kinase 6 (Homo sapiens) (Q16659 whole entry): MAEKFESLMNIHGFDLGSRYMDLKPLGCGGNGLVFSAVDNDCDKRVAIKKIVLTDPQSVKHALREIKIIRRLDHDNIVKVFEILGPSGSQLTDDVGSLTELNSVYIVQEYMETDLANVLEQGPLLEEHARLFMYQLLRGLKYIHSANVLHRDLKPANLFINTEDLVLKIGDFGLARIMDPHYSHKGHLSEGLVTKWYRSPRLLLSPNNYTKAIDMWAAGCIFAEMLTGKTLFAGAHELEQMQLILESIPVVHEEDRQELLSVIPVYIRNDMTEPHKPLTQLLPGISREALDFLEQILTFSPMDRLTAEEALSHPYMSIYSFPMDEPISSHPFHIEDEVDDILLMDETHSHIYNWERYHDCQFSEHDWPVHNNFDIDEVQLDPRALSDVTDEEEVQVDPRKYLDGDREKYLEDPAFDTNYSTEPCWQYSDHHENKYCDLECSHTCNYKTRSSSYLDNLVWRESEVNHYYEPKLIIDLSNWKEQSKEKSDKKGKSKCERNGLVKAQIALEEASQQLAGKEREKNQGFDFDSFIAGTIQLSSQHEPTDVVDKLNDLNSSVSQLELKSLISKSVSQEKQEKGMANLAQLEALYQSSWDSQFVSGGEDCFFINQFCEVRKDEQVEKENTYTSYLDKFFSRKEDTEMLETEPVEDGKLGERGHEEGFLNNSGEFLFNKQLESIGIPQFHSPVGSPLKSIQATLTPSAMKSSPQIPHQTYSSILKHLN

[24] = target: Ribosomal protein S6 kinase alpha-4 (Homo sapiens) (UniProt O75676); details: Compound concentration 1000.0 nM
[25] = target: Serine/threonine-protein kinase 32C (Homo sapiens) (UniProt Q86UX6); details: Compound concentration 1000.0 nM
Chain of Serine/threonine-protein kinase 32C (Homo sapiens) (Q86UX6 whole entry): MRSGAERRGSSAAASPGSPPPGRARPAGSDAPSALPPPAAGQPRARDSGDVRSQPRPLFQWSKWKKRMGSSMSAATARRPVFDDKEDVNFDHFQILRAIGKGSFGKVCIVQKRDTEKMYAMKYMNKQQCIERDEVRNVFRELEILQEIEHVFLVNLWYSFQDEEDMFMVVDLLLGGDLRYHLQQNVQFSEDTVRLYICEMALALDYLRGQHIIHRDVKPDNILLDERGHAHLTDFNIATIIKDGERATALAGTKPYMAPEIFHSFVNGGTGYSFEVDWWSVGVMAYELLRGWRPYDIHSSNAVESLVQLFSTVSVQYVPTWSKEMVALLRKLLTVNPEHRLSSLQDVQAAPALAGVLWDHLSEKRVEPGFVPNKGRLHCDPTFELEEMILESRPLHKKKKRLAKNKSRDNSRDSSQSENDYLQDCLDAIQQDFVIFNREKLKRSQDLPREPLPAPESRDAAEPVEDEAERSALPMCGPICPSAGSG

[26] = target: Myosin light chain kinase, smooth muscle (Homo sapiens) (UniProt Q15746); details: Compound concentration 1000.0 nM
[27] = target: Cyclin-dependent kinase 3 (Homo sapiens) (UniProt Q00526); details: Compound concentration 1000.0 nM
[28] = test system: eIF-2-alpha kinase GCN2 (Homo sapiens), Q9P2K8 [S808G]; details: Compound concentration 1000.0 nM
[29] = target: 5-hydroxytryptamine receptor 2B (Homo sapiens) (UniProt P41595); details: Compound concentration 10.0 uM
[30] = target: Phosphatidylinositol 3-kinase C2 domain-containing subunit gamma (Homo sapiens) (UniProt O75747); details: Compound concentration 1000.0 nM
[31] = target: T2, 5-hydroxytryptamine receptor 2C (Homo sapiens) (UniProt P28335); test: 5-HT2C (h) Eurofins-Cerep binding assay; design: ligand concentration 1 nM; details: filed as antagonist, Compound concentration 10.0 uM
T2 sequence (whole entry): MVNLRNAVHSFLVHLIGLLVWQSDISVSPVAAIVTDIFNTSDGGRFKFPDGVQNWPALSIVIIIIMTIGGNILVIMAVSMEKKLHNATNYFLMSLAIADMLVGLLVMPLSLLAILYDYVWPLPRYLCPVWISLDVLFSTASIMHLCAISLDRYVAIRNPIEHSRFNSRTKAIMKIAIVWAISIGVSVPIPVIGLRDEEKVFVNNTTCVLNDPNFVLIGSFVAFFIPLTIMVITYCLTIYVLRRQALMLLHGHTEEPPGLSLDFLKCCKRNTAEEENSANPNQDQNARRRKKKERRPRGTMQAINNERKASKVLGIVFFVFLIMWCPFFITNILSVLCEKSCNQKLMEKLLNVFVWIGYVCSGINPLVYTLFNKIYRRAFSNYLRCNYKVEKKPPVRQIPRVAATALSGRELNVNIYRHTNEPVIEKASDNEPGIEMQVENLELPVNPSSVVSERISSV

[32] = target: Interferon-induced, double-stranded RNA-activated protein kinase (Homo sapiens) (UniProt P19525); details: Compound concentration 1000.0 nM

Chain of Serine/threonine-protein kinase 4 (Homo sapiens) (Q13043 whole entry): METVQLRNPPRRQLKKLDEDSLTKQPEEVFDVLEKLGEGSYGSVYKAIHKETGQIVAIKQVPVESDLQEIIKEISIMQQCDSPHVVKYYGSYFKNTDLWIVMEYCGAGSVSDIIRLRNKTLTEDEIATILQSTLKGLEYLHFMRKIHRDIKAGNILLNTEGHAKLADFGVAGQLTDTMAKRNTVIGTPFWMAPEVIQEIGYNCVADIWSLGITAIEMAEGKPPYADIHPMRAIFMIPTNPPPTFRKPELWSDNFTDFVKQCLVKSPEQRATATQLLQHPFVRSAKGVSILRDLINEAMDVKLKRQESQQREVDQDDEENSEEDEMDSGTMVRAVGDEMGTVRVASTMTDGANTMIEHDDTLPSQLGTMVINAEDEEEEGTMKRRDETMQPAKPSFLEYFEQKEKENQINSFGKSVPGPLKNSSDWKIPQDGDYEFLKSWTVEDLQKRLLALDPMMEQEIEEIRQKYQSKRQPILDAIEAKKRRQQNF
Chain of 5-hydroxytryptamine receptor 1E (Homo sapiens) (P28566 whole entry): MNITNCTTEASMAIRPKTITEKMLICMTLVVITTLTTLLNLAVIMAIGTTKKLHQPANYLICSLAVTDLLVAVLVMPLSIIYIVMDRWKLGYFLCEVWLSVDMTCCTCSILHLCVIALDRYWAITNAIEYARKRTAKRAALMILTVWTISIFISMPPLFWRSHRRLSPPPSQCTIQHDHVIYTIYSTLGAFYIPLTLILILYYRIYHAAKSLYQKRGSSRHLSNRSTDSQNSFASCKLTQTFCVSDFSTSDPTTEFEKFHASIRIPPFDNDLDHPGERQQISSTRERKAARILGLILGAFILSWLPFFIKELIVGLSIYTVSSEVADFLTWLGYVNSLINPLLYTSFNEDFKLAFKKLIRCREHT

SMILES: O=C(NS(=O)(=O)c1ccc(NCC2CCOCC2)c([N+](=O)[O-])c1)c1ccc(N2CCN(Cc3ccc(C(F)(F)F)cc3-c3ccc(Cl)cc3)CC2)cc1Oc1cnc2[nH]ccc2c1 [A-1210227]
- residual activity [1]: 94%
- inhibition [2]: 10.4%
- residual activity [3]: 71%
- residual activity [4]: 80%
- % Inhibition of Control Specific Binding (Mean n=2) [5]: -0.7%
- residual activity [6]: 100%
- residual activity [7]: 100%
- inhibition [8]: 8.67%
- residual activity [9]: 100%
- residual activity [10]: 86%
- residual activity [11]: 88%
- residual activity [12]: 97%
- residual activity [13]: 100%
- residual activity [14]: 100%
- residual activity [15]: 100%
- residual activity [16]: 100%
- residual activity [17]: 96%
- % Inhibition of Control Specific Binding (Mean n=2) [18]: 10.2%
- residual activity [19]: 94%
- residual activity [20]: 100%
- residual activity [21]: 100%
- residual activity [22]: 79%
- residual activity [23]: 100%
- residual activity [24]: 89%
- residual activity [25]: 55%
- residual activity [26]: 65%
- residual activity [27]: 100%
- residual activity [28]: 85%
- inhibition [29]: -2.34%
- residual activity [30]: 80%
- % Inhibition of Control Specific Binding (Mean n=2) [31]: 3.7%
- residual activity [32]: 94%

SMILES: CO[C@H]1CC[C@H](CNc2ccc(S(=O)(=O)NC(=O)c3ccc(N4CCN(CC5=C(c6ccc(Cl)cc6)CC(C)(C)CC5)CC4)cc3Oc3cnc4[nH]ccc4c3)cc2[N+](=O)[O-])CC1 [A-1211212]
- residual activity [1]: 84%
- inhibition [2]: -1.62%
- residual activity [3]: 67%
- residual activity [4]: 93%
- % Inhibition of Control Specific Binding (Mean n=2) [5]: -8.6%
- residual activity [6]: 91%
- residual activity [7]: 96%
- inhibition [8]: 7.56%
- residual activity [9]: 100%
- residual activity [10]: 87%
- residual activity [11]: 100%
- residual activity [12]: 100%
- residual activity [13]: 55%
- residual activity [14]: 98%
- residual activity [15]: 88%
- residual activity [16]: 100%
- residual activity [17]: 56%
- % Inhibition of Control Specific Binding (Mean n=2) [18]: 32%
- residual activity [19]: 100%
- residual activity [20]: 100%
- residual activity [21]: 68%
- residual activity [22]: 70%
- residual activity [23]: 81%
- residual activity [24]: 90%
- residual activity [25]: 54%
- residual activity [26]: 50%
- residual activity [27]: 100%
- residual activity [28]: 96%
- inhibition [29]: 3.54%
- residual activity [30]: 72%
- % Inhibition of Control Specific Binding (Mean n=2) [31]: -4.1%
- residual activity [32]: 90%
